Patent US10000566B2, “Anti-CD33 antibodies and methods for treatment of acute myeloid leukemia using the same” (IMMUNOGEN INC., priority 2002, dated 2018)
Entries after “also recorded” stand apart in the source; their conditions may differ.

How the values were obtained:
[1] = test system: HL-60 cells injected intravenously; test: HL-60 cell mouse survival model; assay type: in vivo, SCID mice; conditions: treatment starting 11 days after cell injection
Method: FIGS. 24A & B show anti-tumor efficacy of My9-6-DM1 compared with Gentuzumab ozogamicin and standard chemotherapy in an HL-60 survival model. HL-60 cells were intravenously injected into SCID mice. Indicated treatments were started 11 days following injection of cells. Treatments were i.v. daily ×5 except for Gentuzumab ozogamicin (Q4D×3).
(§1) Subcutaneous tumor model—HL-60 human promyelocytic leukemia cells (5×10^6 cells in 0.1 mL) were subcutaneously inoculated into the right flank of female SCID mice. Mice were treated by intravenous injection into a lateral tail vein starting when tumors reached 100 mm^3 in size (400 mm^3 in large tumor model). Tumor size and mouse body weight were measured twice per week. Survival model—HL-60 cells (5×10^6 cells in 0.1 mL) were intravenously injected into the lateral tail vein of female SCID mice. Eleven days after tumor cell injection treatment was started. Mice were checked every day for moribund, tumor mass, or death. Body weight was measured twice per week.
While the efficacy of My9-6-DM1 in the tumor xenograft model is striking, it is also of interest to look at the activity of the conjugate in a mouse survival model where HL-60 cells are injected directly into a mouse tail vein. In this model, control mice die between 30 and 50 days after cell injection. […] However, even in this model, standard chemotherapy provided no significant survival enhancement (FIG. 24B).

[2] = in vivo; cited from earlier work
[3] = test system: human HL-60 tumor cell xenografts; test: Subcutaneous HL-60 tumor xenograft model in SCID mice; assay type: in vivo
Method: as §1
The efficacy of My9-6-DM1 in vivo was determined using SCID mice bearing human HL-60 tumor cell xenografts. HL-60 cells were injected subcutaneously and tumors were allowed to grow to an average size of 100 mm^3. Dosage is expressed as mg antibody in the conjugate, which corresponds to a DM1 dose of approximately 15 μg DM1 per mg of antibody. Tumor volume was measured as an indication of treatment efficacy and mouse body weight was monitored to indicate toxicity due to treatment.

[4] = nude mice; cited from earlier work
CD33 [5] = target: T1, CD33 (Homo sapiens, UniProt P20138); conditions: 9 mg/m^2 i.v. over 4 hours, repeated after 14 days; cited from earlier work
T1 construct: Gemtuzumab ozogamicin was evaluated in phase I and II clinical studies; host or cells: patients (AML)
T1 sequence (P20138 18-364): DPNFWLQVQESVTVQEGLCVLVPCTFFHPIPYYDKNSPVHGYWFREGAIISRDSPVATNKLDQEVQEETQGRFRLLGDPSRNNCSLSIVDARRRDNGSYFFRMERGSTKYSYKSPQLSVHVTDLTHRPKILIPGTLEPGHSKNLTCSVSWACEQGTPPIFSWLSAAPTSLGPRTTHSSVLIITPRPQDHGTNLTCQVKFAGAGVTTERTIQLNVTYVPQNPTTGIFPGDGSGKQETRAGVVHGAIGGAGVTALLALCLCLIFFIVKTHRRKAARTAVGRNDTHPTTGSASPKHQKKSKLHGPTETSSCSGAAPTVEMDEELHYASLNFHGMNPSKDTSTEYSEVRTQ

[6] = test system: leukemia cells (HL-60 cell cultures, HL-60 tumor xenografts in mice, marrow samples from AML patients); conditions: cited from earlier work
CD33 [7] = target: T1, CD33; conditions: Phase I; cited from earlier work
CD33 on HL-60 cells = target: T2, CD33 on HL-60 cells (Homo sapiens, UniProt P20138); test: Antibody and conjugate binding to HL-60 cells by flow cytometry
T2 construct: endogenous in cells; host or cells: HL-60 human leukemic cell line (whole cells; plasma membranes prepared from HL-60)
T2 sequence (P20138 18-364): as above
Method: HL-60 cells were incubated with various concentrations of either My9-6 antibody or My9-6-DM1. The cells were then washed and incubated with a secondary FITC-labeled anti-murine IgG antibody. Following an additional wash, cells were fixed with 2% formaldehyde and cell-associated fluorescence was quantified using a BD FACScan flow cytometer.

THP-1 cells = test: In vitro clonogenic cytotoxicity assay, CD33-expressing cells; assay type: cell-based, human; conditions: THP-1, clonogenic assay
Method: (§2) The cytotoxicity of My9-6-DM1 was measured using the CD33-expressing THP-1 cell and the CD33-negative cell line Namalwa. Cells were plated in 96-well plates in media containing the conjugate and incubated at 37° C. until colonies had formed (2-3 weeks). Colonies were then scored, and the surviving fractions determined using Poisson distribution in the calculations.
(§3) The cytotoxicity of My9-6-DM1 toward CD33 expressing cells (THP-1) compared to a CD33-negative cell line (Namalwa) was tested using a clonogenic assay, where cell killing activity is determined by quantifying the number of colonies that can grow following treatment.

large HL-60 tumors = test: Large HL-60 tumor xenograft model in SCID mice; assay type: in vivo
Method: as §1
Tumors were allowed to grow to a tumor volume of >400 mm^3 prior to the initiation of treatment. In addition, a comparison of the activity of My9-6-DM1 with standard chemotherapeutic drugs was conducted. […]

[8] = test system: human THP-1 tumor xenografts; test: Subcutaneous THP-1 tumor xenograft model in mice; assay type: in vivo; conditions: data not shown
Namalwa cells = test: In vitro clonogenic cytotoxicity assay, CD33-negative cells; assay type: cell-based
Method: as §2, §3

[9] = 100 μg/kg, every 4 days for 3 doses
[10] = tumor volume >400 mm^3 at start of treatment
[11] = 20 mg conjugated antibody/kg/day i.v. ×5 days
[12] = second treatment identical to the first

Substance: Gemtuzumab ozogamicin: humanized anti-CD33 antibody conjugated to calicheamicin [reference compound]
- effect on survival [1]: modest increase in survival
- toxicity in post-marketing reports [2]: venoocclusive disease (VOD)
- tumor growth delay [3, 9]: about 25 days
- tumor response [3, 9]: modest tumor regression
- toxicity in SCID mice ([3]; 0.3 mg/kg, preliminary experiment, data not shown): too toxic
- toxicity ([3]; 100 and 200 μg/kg, every 4 days for 3 doses): Significant toxicity
- maximum tolerated dose ([3]; SCID mice, every 4 days for 3 doses): 0.1 mg/kg
- published MTD [4]: 0.3 mg/kg
- response rate (CD33 [5]): 30%
- killing of leukemia cells [6]: specific killing of leukemia cells
- major toxicity observed (CD33 [7]): myelosuppression

Substance: My9-6-DM1: murine My9-6 antibody linked via SPP disulfide linker to the maytansinoid DM1
- CD33 binding of conjugate compared with unmodified antibody (CD33 on HL-60 cells): maintained the specificity and binding affinity of the unmodified antibody; also recorded: comparable to the unmodified antibody
- cytotoxicity toward CD33-positive tumor cells (THP-1 cells): potent antigen-specific cytotoxicity; also recorded: potent cell killing activity
- effect on survival [1]: dramatic increase in survival
- mice alive at 70 days ([1]; i.v. daily ×5): 7 of 8
- response of relapsed tumors to second treatment (large HL-60 tumors; second treatment of My9-6-DM1): sensitive to a second treatment
- mice with relapsed tumors (large HL-60 tumors; [10]): 2 of 6
- tumor response (large HL-60 tumors; [10]): complete regression of large tumors
- mice showing complete cures ([3]; 13 mg/kg i.v. once a day for 5 days): 2 of 5
- tumor growth delay ([3]; 13 mg/kg i.v. once a day for 5 days, the other 3 mice): approximately 20 days
- toxicity [3, 11]: no toxicity
- tumor response [3, 11]: complete eradication of the tumors
- tumor response ([3]; 23 mg antibody/kg (350 μg DM1/kg) daily for 5 days): complete regression of the tumors
- mouse body weight decrease ([3]; 23 mg antibody/kg daily for 5 days): 12%
- mice with regrowth of tumors ([3]; 23 mg antibody/kg daily for 5 days, starting at day 70): two of the six
- maximum body weight loss ([3]; 19 and 26 mg/kg i.v. once a day for 5 days): less than 10%
- tumor response ([3]; 19 and 26 mg/kg i.v. once a day for 5 days, tumors 100 mm^3): complete regression of the tumors
- outcome of mice bearing HL-60 xenografts ([3]; i.v. once a day for 5 days): long-term cures
- toxicity at curative doses ([3]; i.v. once a day for 5 days): little toxicity
- response of relapsing tumors to second treatment [3, 12]: complete regression
- toxicity of second treatment [3, 12]: no adverse toxicity
- outcome of mice bearing THP-1 xenografts [8]: long-term cures
- toxicity toward CD33-negative cells (Namalwa cells): No significant toxicity
